Legend:
[1] = test system: aged MMP-low and -high LT-HSCs transplanted into lethally irradiated mice; experiment: Long-term in vivo competitive repopulation assay of aged HSCs after ex vivo ConA; design: species or system mouse
Description: FIGS. 21A-21C show repression of lysosomal activity ex vivo greatly improves in vivo competitive repopulation of old HSCs. FIG. 21A is a schematic of long-term in vivo competitive repopulation assay. FACS-sorted (5000) aged MMP-low and -high (CD45.2) long-term (LT) HSCs were cultured in vitro in DMSO control or Con A (40 nM) for 4 days after which 100 cells from each group were injected into lethally irradiated recipient (CD45.1) mice along with 2×10^5 CD45.1 total bone marrow competitor cells (n=7). FIG. 21B is a graph showing contribution of donor-derived (CD45.2) cells to the peripheral blood (PB) of primary recipient mice (CD45.1) in a long-term competitive repopulation assay. FIG. 21C is a graph showing lineage output as a percentage of total CD45.2 donor-derived cells in primary recipients. Data expressed as Mean±SEM (**P<0.01, ***P<0.001). Note only ConA-treated old HSCs and not control-treated HSCs generate over 1% chimerism in transplanted animals after 21 weeks.

[2] = test system: MMP-low and MMP-high HSCs (LSKCD150+CD48-); experiment: Single cell division assay; assay type: cell-based, mouse; conditions: for Number of wells with each number of cell division: 0 / Number of wells with each number of cell division: 1 / Number of wells with each number of cell division: Dead / Number of wells with each number of cell division: ≥2: 60 h
Description: Single Cell Division Assay: Single cell cultures were carried out as previously described (Bernitz et al., “Hematopoietic Stem Cells Count and Remember Self-Renewal Divisions,” Cell 167(5): 1296-1309 (2016), which is hereby incorporated by reference in its entirety). Single MMP-low and MMP-high HSCs (LSKCD150^+CD48^−) isolated from GFP-transgenic mice were FACS sorted into individual wells of round-bottomed 96-well plates. Single cells were visually confirmed under light microscope and cultured in serum free Stemspan medium. Wells were supplemented with SCF (100 ng/ml) and TPO (20 ng/ml) (both from R&D system), were incubated at 37° C. in a humidified atmosphere with 5% CO2, and the number of cells per well was monitored daily. The final number of cell divisions per well was assessed at the indicated time points in each experiment. Treatments with concanamycin A (“ConA”) (40-100 nM) or DMSO control were added at the start of culture and left in the wells for the duration of the experiment unless otherwise stated. More than 200 cells per condition were analyzed. Cell Cycle Analysis—Pyronin Y staining. Pyronin Y staining was performed as described in Rimmele et al., “Mitochondrial Metabolism in Hematopoietic Stem Cells Requires Functional FOXO3,” EMBO Rep. 16: 1164-1176 (2015) and Yalcin et al., “Foxo3 Is Essential for the Regulation of Ataxia Telangiectasia Mutated and Oxidative Stress-mediated Homeostasis of Hematopoietic Stem Cells,” J. Biol. Chem. 283: 25692-25705 (2008), which are hereby incorporated by reference in their entirety. FACS-purified MMP-low and MMP-high LT-HSCs were stained with Hoechst 33342 ([…]) at 37° C. for 45 minutes, followed by staining with pyronin Y (1 mg/ml) for an additional 15 minutes at 37° C. Cells were then washed in cold PBS, and resuspended in IMDM+2% FBS. Samples were immediately analyzed by flow cytometry.

[3] = test system: MMP-low and MMP-high LSK cells; experiment: Metabolic assays (Seahorse OCR and ECAR); assay type: cell-based, mouse; conditions: ConA 40 nM, 18 hours
Description: Metabolic Assays. Oxygen consumption rates (“OCR”) and extracellular acidification rates (“ECAR”) were measured using a 96-well Seahorse Bioanalyzer XF 96 according to manufacturer's instructions using Seahorse Mito Stress Test or Glycolysis Stress Test kit (Agilent Technologies). In brief, MMP-low and MMP-high LSK cells isolated from a pool of at least 11 mice (40,000 cells per well) were sorted and treated with or without ConA (40 nM) for 18 hours in StemSpan media with SCF (10 ng/mL) and TPO (20 ng/mL). Cells were washed and suspended in XF basic medium with 11 mM glucose, 1 mM sodium pyruvate and 2 mM glutamine (pH 7.4 at 37° C.). The injection port A on the sensor cartridge was loaded with […] oligomycin (Oligo), 2 mM FCCP was loaded into port B and 0.5 mM rotenone/antimycin (ROT/AA) A was loaded into port C. During sensor calibration, the cells were incubated in the 37° C. non-CO2 incubator. The plate was immediately placed onto the calibrated XF96 extracellular flux analyzer for the Mito Stress Test. For the glycolysis stress test, cells were suspended in XF basic medium in 1 mM glutamine (pH 7.4 at 37° C.). The injection port A on the sensor cartridge was loaded with 10 mM glucose. Then, 2 mM oligomycin was loaded into port B and 50 mM 2-DG into port C. During sensor calibration, cells were incubated in the 37° C. non-CO2 incubator. The plate was immediately placed in the calibrated XF96 extracellular flux analyzer for the glycolysis stress test.

[4] = test system: MMP-low and MMP-high HSCs; experiment: Glucose uptake assay (2NBDG); assay type: cell-based, mouse; conditions: ConA (25 nM, 50 nM), 18 hours
Description: Glucose Uptake Assay: For measurement of glucose uptake, freshly FACS-purified MMP-low and MMP-high HSCs (at least 2,000 cells pooled in average from 8 mice) were cultured immediately in […] of glucose, glutamine, pyruvate free medium containing 100 or 200 μM 2-(n-(7-nitrobenz-2-oxa-1,3-diazol-4-yl amino)-2-deoxyglucose (2-NBD-Glucose, 2NBDG) for 2 hours. Cells were then washed multiple times in PBS, re-suspended in PBS containing 1 μg/ml DAPI, and analyzed by flow cytometry for 2-NBD glucose fluorescence in the FITC channel. In some experiments cells were cultured in StemSpan medium (StemCell Technology) supplemented with SCF (100 ng/ml) and TPO (20 ng/ml), treated with or without STF-31 ([…]), ConA (25, 50 nM), dimethyl alpha ketoglutarate (MOG, 1 mM), methyl pyruvate (MP, 1 mM) or DMSO, incubated at 37° C. in a humidified atmosphere with 5% CO2 for 6 or 18 hours before removing culture medium from each well, washing extensively and adding […] of glucose, glutamine, pyruvate free medium containing […] of 2 NBDG for 2 hours before washing cells multiple times in PBS and analyzing by flow cytometry. Quantification of 2NBDG uptake was measured by the geometric mean fluorescence intensity (“MFI”) as well as % of 2NBDG^+ cells.

[5] = aging HSCs, ConA 40 nM, 60-hour

C/C=C/[C@H]1O[C@@](O)([C@@H](C)[C@H](O)[C@H](C)[C@H]2OC(=O)/C(OC)=C/C(C)=C/[C@@H](C)[C@@H](O)[C@@H](CC)[C@@H](O)[C@H](C)C/C(C)=C/C=C/[C@@H]2OC)C[C@@H](O[C@H]2C[C@@H](O)[C@H](OC(N)=O)[C@@H](C)O2)[C@@H]1C [ConA, concanamycin A]
lineage output of aged MMP-high HSCs ([1]; 4-day cultured, Con A 40 nM): balanced their lineage output
competitive repopulation ability of aged MMP-high HSCs ([1]; 4-day cultured, Con A 40 nM, 100 cells): remarkably improved
self-renewal of old HSCs and their balance blood production ([1]; ex vivo ConA treatment (FIG. 19 and FIG. 20)): improves significantly
self-renewal of aged HSCs in secondary transplants ([1]; mice receiving control-treated HSCs died): improved self-renewal in secondary transplants
survival of recipients in secondary transplantation ([1]; old HSCs, 4-day ex vivo ConA, not control-treated): survive in secondary transplantation
chimerism in transplanted animals ([1]; old HSCs, after 21 weeks, control-treated HSCs do not): over 1%
frequency of non-dividing MMP-high GFP+ HSCs ([2]; ConA 40 nM, up to 60 hours): significantly increased
non-dividing MMP-low HSCs in culture ([2]; ConA 40 nM, up to 60 hours): only a slight effect
Number of wells with each number of cell division: 0 ([2]; MMP High + Con A (40 nM)): 23.8 ± 1.33
Number of wells with each number of cell division: 1 ([2]; MMP High + Con A (40 nM)): 8.8 ± 0.84
Number of wells with each number of cell division: Dead ([2]; MMP High + Con A (40 nM)): 14.4 ± 0.92
Number of wells with each number of cell division: ≥2 ([2]; MMP High + Con A (40 nM)): 7.4 ± 2.62
Number of wells with each number of cell division: 0 ([2]; MMP Low + Con A (40 nM)): 35.8 ± 8.89
Number of wells with each number of cell division: 1 ([2]; MMP Low + Con A (40 nM)): 7.4 ± 1.24
Number of wells with each number of cell division: Dead ([2]; MMP Low + Con A (40 nM)): 7 ± 1.51
Number of wells with each number of cell division: ≥2 ([2]; MMP Low + Con A (40 nM)): 4.6 ± 1.53
cell death of aging HSC in culture [2, 5]: without any increase in cell death
division of aging HSC in culture [2, 5]: divided less than non-treated HSC
glycolysis (ECAR) in MMP-high and MMP-low HSPCs [3]: collapsed glycolysis
oxygen consumption in MMP-low HSPCs [3]: only a relatively small effect
oxygen consumption in primed (MMP-high) HSPCs [3]: drastically decreased oxygen consumption
decrease of glucose uptake in MMP-high HSCs [4]: 19 fold
effect on reducing the viability under the glucose uptake condition [4]: mostly restricted to MMP-high and subtle in MMP-low HSCs

Source: patent US20220243177A1, “METHODS OF CULTURING QUIESCENT HEMATOPOIETIC STEM CELLS AND TREATMENT METHODS” (priority 2019, published 2022)
